# Article PMC5069568 (Diabetes, Obesity & Metabolism, 2016)
# Key:
# Format in all cases: in vivo, human
# [1] = test system: obese or overweight adults; experiment: Exposure–safety outcome analyses
# [2] = test system: obese or overweight adults with type 2 diabetes; experiment: Exposure–HbA1c analysis, Trial 2; details: Trial 2, type 2 diabetes, corresponds to ∼500 nM × h
# [3] = test system: obese or overweight adults; experiment: Exposure–body weight loss analysis, clinical Trials 1–3; details: Trial 1, liraglutide 3.0 mg, overall female population
structure (smiles),measurement,setting,value
"CCCCCCCCCCCCCCCC(=O)N[C@@H](CCC(=O)NCCCC[C@H](NC(=O)[C@H](C)NC(=O)[C@H](C)NC(=O)[C@H](CCC(N)=O)NC(=O)CNC(=O)[C@H](CCC(=O)O)NC(=O)[C@H](CC(C)C)NC(=O)[C@H](Cc1ccc(O)cc1)NC(=O)[C@H](CO)NC(=O)[C@H](CO)NC(=O)[C@@H](NC(=O)[C@H](CC(=O)O)NC(=O)[C@H](CO)NC(=O)[C@@H](NC(=O)[C@H](Cc1ccccc1)NC(=O)[C@@H](NC(=O)CNC(=O)[C@H](CCC(=O)O)NC(=O)[C@H](C)NC(=O)[C@@H](N)Cc1cnc[nH]1)[C@@H](C)O)[C@@H](C)O)C(C)C)C(=O)N[C@@H](CCC(=O)O)C(=O)N[C@@H](Cc1ccccc1)C(=O)N[C@H](C(=O)N[C@@H](C)C(=O)N[C@@H](Cc1c[nH]c2ccccc12)C(=O)N[C@@H](CC(C)C)C(=O)N[C@H](C(=O)N[C@@H](CCCNC(=N)N)C(=O)NCC(=O)N[C@@H](CCCNC(=N)N)C(=O)NCC(=O)O)C(C)C)[C@@H](C)CC)C(=O)O [liraglutide, Liraglutide]",effect on serum calcitonin levels,"[1]; all three trials, change from baseline over all exposure quantiles",did not result in elevated serum calcitonin levels
same,increase in mean resting pulse versus placebo,"[1]; liraglutide-treated individuals, doses 1.2–3.0 mg, Trials 1–3",2–3 beats per min
same,liraglutide plasma concentration at which HbA1c reduction plateaued,[2],~21 nM
same,weight loss,[3],9.3 kg
same,weight loss from baseline,[3],9.2%
